Assay results as given in the supplement of paper PMC13380429.
± gives the standard deviation of the averaged measurements.

Experiments:
Settings in all cases: 72 h
Caco-2 [1] = assay: cell viability relative to DMSO; higher = less toxic
Calu-3 [2] = assay: as above
HepG2 [3] = assay: as above
U2OS [4] = assay: as above
Vero E6 [5] = assay: as above
Caco-2 [6] = assay: relative viability EC50 (midpoint between 100% and the lowest measured viability); higher = less toxic
Calu-3 [7] = assay: as above
HepG2 [8] = assay: as above
U2OS [9] = assay: as above
Vero E6 [10] = assay: as above
Caco-2 [11] = assay: drug sensitivity score (DSS) for viability; higher = more toxic; extreme values may be limits of the assay
Calu-3 [12] = assay: as above
HepG2 [13] = assay: as above
U2OS [14] = assay: as above
Vero E6 [15] = assay: as above

| Compound | cell viability (Caco-2 [1]; 1 nM) [%] | cell viability (Caco-2 [1]; 10 nM) [%] | cell viability (Caco-2 [1]; 100 nM) [%] | cell viability (Caco-2 [1]; 1000 nM) [%] | cell viability (Caco-2 [1]; 10000 nM) [%] | cell viability (Calu-3 [2]; 1 nM) [%] | cell viability (Calu-3 [2]; 10 nM) [%] | cell viability (Calu-3 [2]; 100 nM) [%] | cell viability (Calu-3 [2]; 1000 nM) [%] | cell viability (Calu-3 [2]; 10000 nM) [%] | cell viability (HepG2 [3]; 1 nM) [%] | cell viability (HepG2 [3]; 10 nM) [%] | cell viability (HepG2 [3]; 100 nM) [%] | cell viability (HepG2 [3]; 1000 nM) [%] | cell viability (HepG2 [3]; 10000 nM) [%] | cell viability (U2OS [4]; 1 nM) [%] | cell viability (U2OS [4]; 10 nM) [%] | cell viability (U2OS [4]; 100 nM) [%] | cell viability (U2OS [4]; 1000 nM) [%] | cell viability (U2OS [4]; 10000 nM) [%] | cell viability (Vero E6 [5]; 1 nM) [%] | cell viability (Vero E6 [5]; 10 nM) [%] | cell viability (Vero E6 [5]; 100 nM) [%] | cell viability (Vero E6 [5]; 1000 nM) [%] | cell viability (Vero E6 [5]; 10000 nM) [%] | relative viability EC50 (Caco-2 [6]) [µM] | relative viability EC50 (Calu-3 [7]) [µM] | relative viability EC50 (HepG2 [8]) [µM] | relative viability EC50 (U2OS [9]) [µM] | relative viability EC50 (Vero E6 [10]) [µM] | drug sensitivity score (Caco-2 [11]) | drug sensitivity score (Calu-3 [12]) | drug sensitivity score (HepG2 [13]) | drug sensitivity score (U2OS [14]) | drug sensitivity score (Vero E6 [15]) |
| --- | --- | --- | --- | --- | --- | --- | --- | --- | --- | --- | --- | --- | --- | --- | --- | --- | --- | --- | --- | --- | --- | --- | --- | --- | --- | --- | --- | --- | --- | --- | --- | --- | --- | --- | --- |
| COC(=O)C1=C(C)NC(C)=C(C(=O)OCCCN2CCC(c3ccccc3)(c3ccccc3)CC2)[C@@H]1c1cccc([N+](=O)[O-])c1 [dexniguldipine] | 99.8 ± 0.28 | 100 ± 0.71 | 97.7 ± 7.6 | 91.4 ± 0.42 | 40.8 ± 7.7 | 103.7 ± 0.42 | 94 ± 2.3 | 104.1 ± 0.71 | 99.2 ± 7.6 | 15.8 ± 14 | 102 ± 14 | 101 ± 3.4 | 94.7 ± 3.8 | 102 ± 3 | 16.8 ± 2 | 102 ± 2.6 | 102 ± 2.5 | 100.8 ± 0.21 | 94.3 ± 7.8 | 20.8 ± 17 | 94 ± 1.9 | 99.7 ± 2.5 | 95 ± 3.6 | 94.35 ± 0.92 | 39.5 ± 2.3 | 2.01 | 3.03 | 3.26 | 2.61 | 2.39 | 4.65 ± 0.49 | 4.95 ± 1.8 | 4.5 ± 0.14 | 5.3 ± 2.3 | 4.2 |
| O=C(NC(O)C(Cl)(Cl)Cl)NC(O)C(Cl)(Cl)Cl (stereo not given) [dicloralurea] | 96.6 | 114 | 111 | 102 | 90.1 | 94.1 | 96.2 | 102 | 86.9 | 99.5 | 96.2 | 107 | 109 | 104 | 97.4 | 97 | 92.4 | 97.6 | 94.4 | 103 | 97.6 | 101 | 95.2 | 92.4 | 103 | > 10 | > 10 | > 10 | > 10 | > 10 | 0 | 0 | 0 | 0 | 0 |
| C[C@@H]1CC[C@@]2(OC1)O[C@H]1C[C@H]3[C@@H]4CC=C5C[C@@H](O)CC[C@]5(C)[C@H]4CC[C@]3(C)[C@H]1[C@@H]2C [diosgenin] | 105 | 97.9 | 101 | 94.5 | 101 | 96.8 | 91.3 | 84.2 | 95.4 | 95.4 | 101 | 105 | 98.8 | 102 | 106 | 95.9 | 99.1 | 101 | 99.9 | 98.1 | 102 | 107 | 102 | 103 | 98.1 | > 10 | > 10 | > 10 | > 10 | > 10 | 0 | 0 | 0 | 0 | 0 |
| CCCCCCCCCCCCOS(=O)(=O)O [dodecyl-sulfate] | 101 ± 8.6 | 99.5 ± 16 | 102 ± 3.1 | 99.2 ± 3.1 | 106 ± 27 | 106 ± 17 | 94.5 ± 9 | 103 ± 4.2 | 90.5 ± 6.3 | 106 ± 3.5 | 106 ± 15 | 106 ± 12 | 102 ± 7 | 99.6 ± 5.7 | 92.1 ± 3.1 | 100 ± 4.9 | 93.5 ± 0.28 | 102 ± 4 | 91.7 ± 0.28 | 100 ± 4.6 | 100 ± 5.2 | 102 ± 7.9 | 95.7 ± 5.3 | 104 ± 1.7 | 101 ± 6.7 | > 10 | > 10 | > 10 | > 10 | > 10 | 0.05 ± 0.071 | 0 | 0 | 0 | 0 |
| COc1cc2c(cc1OC)CN(CCc1ccc(NC(=O)c3cccc4c(=O)c5cccc(OC)c5[nH]c34)cc1)CC2 [elacridar] | 97.3 | 91.6 | 92.2 | 95.5 | 88.3 | 98.9 | 94.3 | 99.6 | 101 | 89 | 99.6 | 107 | 101 | 96.6 | 97.9 | 96.5 | 99.3 | 99.2 | 100 | 99.8 | 97 | 94.8 | 98.7 | 93.5 | 103 | > 10 | > 10 | > 10 | > 10 | > 10 | 0 | 0 | 0 | 0 | 0 |
| O=C(Cn1ccnc1[N+](=O)[O-])NCCO [etanidazole] | 100 | 94.1 | 95.9 | 91.5 | 92.7 | 98.8 | 92.4 | 94 | 98.1 | 107 | 98.7 | 106 | 92.3 | 101 | 88.8 | 101 | 97.1 | 102 | 99.1 | 102 | 103 | 104 | 106 | 101 | 97.7 | > 10 | > 10 | > 10 | > 10 | > 10 | 0 | 0 | 0 | 0 | 0 |
| CC[C@@H](CO)NCCN[C@@H](CC)CO [ethambutol] | 99.1 | 92.3 | 97.6 | 102 | 104 | 98.9 | 88.7 | 96 | 90.4 | 96.7 | 93.3 | 108 | 90.3 | 95.2 | 98.7 | 103 | 98 | 103 | 96.5 | 99.3 | 92.3 | 98.2 | 90.8 | 99.1 | 102 | > 10 | > 10 | > 10 | > 10 | > 10 | 0 | 0 | 0 | 0 | 0 |
| CCNCC(O)c1cccc(O)c1 (stereo not given) [etilefrine] | 92.1 | 105 | 93 | 99.7 | 104 | 99.2 | 102 | 98.9 | 102 | 104 | 95.2 | 87.3 | 89 | 93 | 104 | 98.9 | 103 | 98.1 | 98.9 | 95.7 | 97.1 | 93.6 | 98.3 | 96.4 | 99.6 | > 10 | > 10 | > 10 | > 10 | > 10 | 0 | 0 | 0 | 0 | 0 |
| CCOC(=O)[C@@]1(CCCCCCOc2ccc(Cl)cc2)CO1 [etomoxir] | 92.6 | 97.6 | 98.2 | 98 | 85.6 | 106 | 114 | 98.2 | 117 | 110 | 115 | 106 | 101 | 108 | 91.7 | 105 | 102 | 104 | 103 | 97.7 | 113 | 106 | 110 | 104 | 98.1 | > 10 | > 10 | > 10 | > 10 | > 10 | 0.4 | 0 | 0 | 0 | 0 |
| COCCCC/C(=N\OCCN)c1ccc(C(F)(F)F)cc1 [fluvoxamine] | 124 | 109 | 84.3 | 80.6 | 94.1 | 102 | 109 | 95.6 | 96.5 | 93.7 | 99.3 | 93.5 | 100 | 105 | 100 | 104 | 97.3 | 98 | 96.4 | 98.5 | 91.6 | 103 | 98.1 | 101 | 88 | > 10 | > 10 | > 10 | > 10 | > 10 | 4 | 0 | 0 | 0 | 0 |
| C[C@@H](O[C@H]1OCCN(Cc2nn(P(=O)(O)O)c(=O)[nH]2)[C@H]1c1ccc(F)cc1)c1cc(C(F)(F)F)cc(C(F)(F)F)c1 [fosaprepitant-dimeglumine] | 98.4 | 95.1 | 93.2 | 102 | 90.8 | 99.7 | 93.8 | 102 | 93.8 | 108 | 93.6 | 93.4 | 88.7 | 91.9 | 89.6 | 98.6 | 103 | 95.4 | 96.1 | 86.4 | 92.5 | 97.3 | 97.9 | 99.6 | 99.7 | > 10 | > 10 | > 10 | > 10 | > 10 | 0 | 0 | 0.1 | 0.1 | 0 |
| CC(OC(=O)NCC1(CC(=O)O)CCCCC1)OC(=O)C(C)C (stereo not given) [gabapentin-enacarbil] | 105 | 87.2 | 106 | 110 | 104 | 103 | 96.3 | 106 | 104 | 89 | 101 | 93.8 | 94.7 | 90.1 | 89.4 | 101 | 96.5 | 102 | 94 | 102 | 83.4 | 97.8 | 84.2 | 107 | 106 | > 10 | > 10 | > 10 | > 10 | > 10 | 0 | 0 | 0 | 0 | 0 |
| Oc1noc2c1CCNC2 [gaboxadol] | 92.6 | 99 | 91.6 | 104 | 95.3 | 99.7 | 91.4 | 103 | 103 | 99.4 | 105 | 101 | 88.2 | 101 | 98.1 | 102 | 100 | 94.3 | 98.3 | 94.2 | 96.6 | 95.8 | 96.2 | 94.6 | 106 | > 10 | > 10 | > 10 | > 10 | > 10 | 0 | 0 | 0 | 0 | 0 |
| C[C@H](N)Cc1cccc(O)c1 [gepefrine] | 91.3 | 104 | 88 | 99.1 | 111 | 93.4 | 100 | 102 | 99.7 | 88.7 | 103 | 97.2 | 96.8 | 104 | 109 | 88 | 93.9 | 90.3 | 95 | 103 | 99.7 | 96 | 98.1 | 101 | 111 | > 10 | > 10 | > 10 | > 10 | > 10 | 0 | 0 | 0 | 0 | 0 |
